Reference: patent US20260139328A1, “NOVEL MICROBIAL GENOTOXINS” (Yale University, priority 2022, published 2026)

Tests used:
HeLa cells [1] = tested on: HeLa cells
HeLa cells [2] = experiment: alkaline comet unwinding assay in HeLa cells; format: cell-based, human; details: 100 μg/ml synthetic compounds, 5-6 h
Description: To assess DNA damage using chemical extracts of bacterial metabolites, HeLa, MC38 or HCT116 cells were treated with 5 mg/ml ethyl-acetate extracts diluted in culture medium supplemented with 10 mM HEPES for 4-6 h.
To assess DNA damage using pure compounds, HeLa cells were treated with 100 µg/ml cisplatin, 100 μg/ml, 25 μg/ml, or 10 μg/ml indolimine-214 (1), compound 2, indolimine-200 (3), indolimine-248 (4) or 0.1% DMSO diluted in culture medium supplemented with 10 mM HEPES for 4-6 h.
After treatment with ethyl-acetate extracts or pure synthetic compounds, HeLa cells were washed with PBS and collected via trypsinization. DNA damage was assessed via alkaline single cell gel electrophoresis using the Trevigen Comet Assay kit (Trevigen, Inc.) according to the manufacturer's instructions. Briefly, cells were embedded in Comet LMAgarose and loaded onto CometSlide™. Slides were placed flat at 4° C. in the dark for 10 min and then immersed overnight in Lysis Solution at 4° C. […] Comet images were acquired using a Leica DMRB fluorescence microscope. Tail DNA % (Tail DNA content as a percentage of Comet DNA content) and Tail moment (Tail length multiplied by Tail DNA %) were analyzed with OpenComet v1.3.1., and 20-50 comets were recorded for each sample.

[3] = NMR analysis of synthetic indolimine-214 after preparative HPLC purification; details: upon preparative HPLC purification; reversible reaction in water
[4] = tested on: circular pUC19 plasmid DNA

Structure (SMILES): C(=N\CCc1ccccc1)/c1c[nH]c2ccccc12 [indolimine-248 (4)]
- γ-H2AX in HeLa cells (HeLa cells [1]): triggered increased 7-H2AX in HeLa cells in a dose-dependent manner

Structure (SMILES): CC(C)CCN=Cc1c[nH]c2ccccc12 [indolimine-214 (1)]
- tailing in alkaline comet unwinding assay (HeLa cells [2]): induced tailing
- degradation into the two starting materials [3]: ≥ 20%
- DNA damage of circular pUC19 plasmid [4]: neither synthetic indolimine-214 (1) nor compound 2 alone (up to 1 mg/ml) induced DNA damage
- genotoxicity (γ-H2AX, HeLa) in relation to purity (HeLa cells [1]): correlated directly with its purity
- γ-H2AX in HeLa cells (HeLa cells [1]): triggered increased γ-H2AX in a dose-dependent manner

Structure (SMILES): CC(C)C/N=C/c1c[nH]c2ccccc12 [indolimine-200 (3)]
- γ-H2AX in HeLa cells (HeLa cells [1]): triggered increased 7-H2AX in HeLa cells in a dose-dependent manner
